Assays:
Social Phobia = test: Treatment of subjects diagnosed with Social Phobia; type: in vivo, human; conditions: subjects aged 18 to 55 years with Social Phobia; about 40 to about 200 mg/day
Specific Phobia = test: Treatment of subjects diagnosed with Specific Phobia; type: in vivo, human; conditions: subjects aged 18 to 55 years with Specific Phobia; about 40 to about 200 mg/day

In the case of `O=C1Cc2cc(CCN3CCN(c4nsc5ccccc45)CC3)c(Cl)cc2N1` [Ziprasidone, 5-(2-(4-(1,2-benzisothiazol-3-yl)piperazinyl)ethyl)chlorooxindole], the “tolerability / side effects” value (Social Phobia) is reported as “well tolerated” and the “tolerability / side effects” value (Specific Phobia) is reported as “well tolerated”.
